Patent US20120083508A1, “ALPHA-2B RECEPTOR AGONIST AND ANTICONVULSANT COMPOSITIONS FOR TREATING CHRONIC PAIN” (ALLERGAN, INC., priority 2006, published 2012)

Experiments:
[1] = system: Chung rat model of chronic pain; test: Chung rat model of chronic pain (allodynia reversal); assay type: in vivo; conditions: for PAIN REVERSAL: Compound No. 27 10 μg/kg given immediately after Gabapentin 10 mg/kg, rats; for pain relief when administered alone at the dose used in the combination: intraperitoneally, doses of Table 4 (No. 95 1 μg/kg, No. 27 10 μg/kg)
[2] = system: Chung rat model of chronic pain; test: as above; assay type: in vivo; conditions: for PAIN REVERSAL: rats
Method: Gabapentin was administered intraperitoneally to rats at a minimally effective dose; that is, the compound was administered at a dose that, when administered alone, is the minimum dose required to relieve pain (this dose was calculated by finding, first, the dose that produced drug's maximum effect—that is, the dose that fully alleviated pain—and dividing that dose by three; the result is a dose that is slightly less than 50% of the dose that is required to produce the drug's maximum effect). The rats then immediately received one of two alpha-2B receptor agonists, Compound No. 95 and Compound No. 27, or received no additional compound, at all. […] Pain reversal was then assessed using the Chung rat model of chronic pain. The model is described by Kim and Chung, Pain, […], at 355-363 (1992) and in U.S. Pat. No. 7,091,232, both of which are incorporated by reference herein.
The right-hand column in Table 5 provides the P values showing statistical significance comparing the effect of the alpha-2B receptor agonist+Gabapentin to the effect of Gabapentin alone. The significance was determined using a 2-sided unpaired Student t test.
(§1) A minimal effect is typically <50% reversal of allodynia. Optimal effects are typically >80% reversal of allodynia. Gabapentin by itself is not fully effective so its peak effect is about 62% reversal of allodynia. An ineffective intraperitoneal (IP) Gabapentin dose is 3 mg/kg. A minimally effective dose is 10 mg/kg and its peak effect is achieved with 30 mg/kg. […] Locomotor activity is determined automatically by placing the rat in a digicom analyzer chamber (Omnitech Electronic). These chambers have photocells criss-crossing the box that are broken as the animal moves around. The computer analyses this movement and records total activity over 5-minute time periods.

locomotor activity = test: Locomotor / exploratory activity in a novel chamber (digicom analyzer); assay type: in vivo, rat
Method: as §1

[3] = IP 1 ug/kg + Gabapentin 10 mg/kg

**Q.** Which results are given for C1=NC(CC2CCc3ccccc3C2)CN1 (stereo not drawn) [Compound 27]?
**A.** PAIN REVERSAL [1]: 78%; PAIN REVERSAL ([1]; listed as Compound No. 27): 78%; % Allodynia Reversal (30 min peak) ([1]; IP 10 ug/kg + Gabapentin 10 mg/kg): 77.50 ± 4.7%; % Allodynia Reversal (30 min peak) ([1]; IP, 10 ug/kg, alone): 43.75 ± 7.4%; % Allodynia Reversal (30 min peak) ([1]; IP, 30 ug/kg, alone): 74.59 ± 7.4%; % Allodynia Reversal (30 min peak) ([1]; IP, 100 ug/kg, alone): 90.86 ± 5.9%; pain relief when administered alone at the dose used in the combination ([1]; alone): not effective in relieving pain

**Q.** C[C@@H](c1c[nH]c(=S)[nH]1)c1cccc2ncccc12 [Compound 95] was tested. Which “PAIN REVERSAL” value ([2]; Compound No. 95 1 μg/kg given immediately after Gabapentin 10 mg/kg) did it give?
**A.** 75%

**Q.** What about the “% Allodynia Reversal (30 min peak)” value [1, 3] of the same compound?
**A.** 75.46 ± 5.3%

**Q.** And the “% Allodynia Reversal (30 min peak)” value ([1]; PO, 1 ug/kg, alone)?
**A.** 1.52 ± 1.0%

**Q.** And the “% Allodynia Reversal (30 min peak)” value ([1]; PO, 3 ug/kg, alone)?
**A.** 58.21 ± 5.3%

**Q.** And the “% Allodynia Reversal (30 min peak)” value ([1]; PO, 10 ug/kg, alone)?
**A.** 78.43 ± 4.6%

**Q.** And the “% Allodynia Reversal (30 min peak)” value ([1]; PO, 30 ug/kg, alone)?
**A.** 81.53 ± 6.2%

**Q.** What about the “% Allodynia Reversal (30 min peak)” value ([1]; PO, 100 ug/kg, alone) of the same compound?
**A.** 81.26 ± 8.8%

**Q.** What about the “pain relief when administered alone at the dose used in the combination” value ([1]; alone) of the same compound?
**A.** not effective in relieving pain

**Q.** OCCNC(=S)NCc1cccc(Cl)c1F [Compound 131] was tested. Which “% Allodynia Reversal (30 min peak)” value [2, 3] did it give?
**A.** 88.00 ± 5.4%

**Q.** What about the “% Allodynia Reversal (30 min peak)” value ([1]; IP, 1 ug/kg, alone) of the same compound?
**A.** 3.92 ± 1.8%

**Q.** And the “% Allodynia Reversal (30 min peak)” value ([1]; IP, 3 ug/kg, alone)?
**A.** 54.67 ± 6.1%

**Q.** And the “% Allodynia Reversal (30 min peak)” value ([1]; IP, 10 ug/kg, alone)?
**A.** 85.24 ± 6.0%

**Q.** What about the “% Allodynia Reversal (30 min peak)” value ([1]; IP, 30 ug/kg, alone) of the same compound?
**A.** 90.04 ± 6.1%

**Q.** And the “% Allodynia Reversal (30 min peak)” value ([1]; IP, 100 ug/kg, alone)?
**A.** 95.31 ± 4.7%

**Q.** And the “% Allodynia Reversal (30 min peak)” value ([1]; IP, 300 ug/kg, alone)?
**A.** 91.7 ± 5.3%

**Q.** Which “PAIN REVERSAL” value ([2]; Gabapentin 10 mg/kg intraperitoneally, alone) does the source give for NCC1(CC(=O)O)CCCCC1 [Gabapentin] here?
**A.** 45%

**Q.** And the “PAIN REVERSAL” value ([2]; Gabapentin 10 mg/kg intraperitoneally, alone, listed as gabapentin)?
**A.** 45%

**Q.** What about the “% Allodynia Reversal (30 min peak)” value ([2]; IP, 10 mg/kg, alone) of the same compound?
**A.** 40.8 ± 9.3%

**Q.** And the “% Allodynia Reversal (30 min peak)” value ([2]; IP, 30 mg/kg, alone)?
**A.** 61.56 ± 5.7%

**Q.** And the “peak effect, reversal of allodynia” value ([1]; Gabapentin by itself, IP, peak effect achieved with 30 mg/kg)?
**A.** about 62%

**Q.** And the “% Allodynia Reversal (30 min peak)” value ([1]; IP, 1 mg/kg, alone)?
**A.** 5.89 ± 1.3%

**Q.** What about the “dose at which peak effect is achieved” value ([1]; IP, alone) of the same compound?
**A.** 30 mg/kg

**Q.** And the “ineffective intraperitoneal (IP) dose” value ([1]; IP, alone)?
**A.** 3 mg/kg

**Q.** And the minimally effective dose ([1]; IP, alone, minimal effect is <50% reversal of allodynia)?
**A.** 10 mg/kg

**Q.** What about the “sedative effects (locomotor activity)” value (locomotor activity; 100 mg/kg) of the same compound?
**A.** significantly reduced locomotor activity

**Q.** What about the “reduction in exploratory activity compared to vehicle treated rats” value (locomotor activity; 100 mg/kg intraperitoneally 15 minutes before novel chamber, between 40-60 minutes after dosing) of the same compound?
**A.** > 50%
